Laboratory results reported in EP0322643A1, “Medicines containing as a mixture interferon and 1-desoxy-piperidinoses, process for their manufacture and their use” (BAYER AG, priority 1987, dated 1989).

System: Visna-Virus
Assay: Visna virus test: inhibition of virus-induced cytopathic effect in infected sheep fibroblast cell cultures
Type: cell-based
Parameters: key to Antivirale Wirkung in der Zellkultur*: 3 = kompletter antiviraler Schutzeffekt; 100% Schutz der Zellen vor der Infektion; 2 = 50% Schutzeffekt der infizierten Zellkultur; 1- 10 - 20% Schutzeffekt der infizierten Zellkultur; 0 = komplette Zerstörung der infizierten Zellkultur
Settings: for Antivirale Wirkung in der Zellkultur*: compound alone, Schafszellen
From the text: In Zellkulturen, die mit Visna-Virus infiziert sind, treten 5 bis 10 Tage nach der Infektion ausgeprägte virusinduzierte, zytopathische Effekte auf. Durch Behandlung der infizierten Zellkulturen mit den erfindungsgemäßen Kombinationen von Verbindungen der allgemeinen Formel (I) und Interferon konnte das Auftreten dieser zytopathischen Effekte verhindert werden.
Der Visna-Virus-Test wurde nach der Methode von 0. Narayan et al., Journal of Infectious Diseases 135, 5, 1977, 800 - 806 durchgeführt. Dazu wurden die erfindungsgemäßen Kombinationen von Verbindungen der allgemeinen Formel (I) und Interferon im Kulturmedium zu nicht zytotoxischen Konzentrationen verdünnt, und zwar in 96er Microtiterplatten. Anschließend wurden zu jeder Verdünnung der Wirkstoffe Schafsfibroblastenzellen (5 x 10⁴ Zellen pro Napf) in Kulturmedium zugeführt.
Jedes Näpfchen erhielt dann 50 µl einer Visna-Viruslösung mit einem Titer von ca. 2,5 x 10⁴ TCID₅₀ (TCID = tissue culture infectious dosis). Diese Virusdosis entspricht einer MOI (Multiplizität der Infektion) von ca. 0,05.
Unter diesen Infektionsbedingungen resultierte zwischen Tag 5 und Tag 10 in einer Infektionskontrolle ohne Substanz ein virusinduzierter, zytopathischer Effekt. Die infizierten und behandelten Zellen und die Kontrollzellen wurden 7 Tage bei 37°C, 5% CO₂ inkubiert.
Bei Auftreten des virusinduzierten zytopathogenen Effektes in der unbehandelten Viruskontrolle wurden die Kulturen mit Formalin fixiert und anschließend mit einer Giemsa-Lösung gefärbt. Die inhibitorische Konzentration (IC₅₀) wurde mikroskopisch als die Konzentration ermittelt, bei der der zytopathische Effekt um 50% gehemmt wurde, im Vergleich zur unbehandelten Viruskontrolle, die 100% Zellzerstörung aufwies.

## CC(C)c1ccc(NC(=O)CCN2C[C@@H](O)[C@@H](O)[C@H](O)[C@H]2CO)cc1 [3-(1,5-Didesoxy-1,5-imino-D-mannit-N-yl)-propionsäure-4-isopropyl-anilid]
By combining both active substances, versus the single component alone
  Reduktion der Konzentration der Einzelkomponenten um den Faktor: 30
Konzentration der Testsubstanz 0,03 mg/ml
  Antivirale Wirkung in der Zellkultur*: 2 (2 = 50% Schutzeffekt der infizierten Zellkultur)
Konzentration der Testsubstanz 0,5 mg/ml
  Antivirale Wirkung in der Zellkultur*: 3 (3 = kompletter antiviraler Schutzeffekt; 100% Schutz der Zellen vor der Infektion)
Konzentration der Testsubstanz 0,06 mg/ml
  Antivirale Wirkung in der Zellkultur*: 3 (3 = kompletter antiviraler Schutzeffekt; 100% Schutz der Zellen vor der Infektion)
Konzentration der Testsubstanz 0,25 mg/ml
  Antivirale Wirkung in der Zellkultur*: 3 (3 = kompletter antiviraler Schutzeffekt; 100% Schutz der Zellen vor der Infektion)
Konzentration der Testsubstanz 0,001 mg/ml
  Antivirale Wirkung in der Zellkultur*: 0
Konzentration der Testsubstanz 1 mg/ml
  Antivirale Wirkung in der Zellkultur*: 3 (3 = kompletter antiviraler Schutzeffekt; 100% Schutz der Zellen vor der Infektion)
Konzentration der Testsubstanz 0,003 mg/ml
  Antivirale Wirkung in der Zellkultur*: 0
Konzentration der Testsubstanz 0,007 mg/ml
  Antivirale Wirkung in der Zellkultur*: 0
Konzentration der Testsubstanz 0,015 mg/ml
  Antivirale Wirkung in der Zellkultur*: 1 (1- 10 - 20% Schutzeffekt der infizierten Zellkultur)
Konzentration der Testsubstanz 0,125 mg/ml
  Antivirale Wirkung in der Zellkultur*: 3 (3 = kompletter antiviraler Schutzeffekt; 100% Schutz der Zellen vor der Infektion)
